Experiments:
[1] = system: 2-oxocarboxylic acid reductase; test: Relative rates of reduction of 2-oxocarboxylic acids, enzyme from P. vulgaris; assay type: biochemical, Proteus vulgaris; details: rate for phenylpyruvate taken as 1
Method: In an electrochemical cell, 25 ml of a solution of 100 mM potassium phosphate buffer at pH 7.0, 4 mM methylviologen and 40 mM phenylpyruvate were reduced with 0.5 mg of 2-oxoacid reductase according to Example 3 at a voltage of -700 mV, against a standard calomel electrode. The current of 5.8 mA decreased sharply after 9 hours. According to HPLC analysis, the reaction solution contained 88% of the phenyllactic acid expected. The solution was acidified to pH 1.8 with dilute sulfuric acid and then extracted with ether. […] A pure commercial preparation of (2S)-sodium phenyllactate gave a value of -21.4°, measured under the same conditions. (R)-mandelic acid and (R)-2-hydroxy-4-methylpentanoate were prepared by a similar method.
3-Oxocarboxylic acids and hydroxyacetone are not reduced.

[2] = system: 2-oxocarboxylic acid reductase; test: Relative rates of reduction of 2-oxocarboxylic acids, enzyme from P. mirabilis; assay type: biochemical, Proteus mirabilis; details: for Relative rates (of reduction): P. mirabilis enzyme, rate for phenylpyruvate taken as 1
[3] = system: 2-oxocarboxylic acid reductase
[4] = system: 2-oxocarboxylic acid reductase; test: Initial rates with increasing concentrations of oxidized methylviologen, P. vulgaris enzyme; assay type: biochemical, Proteus vulgaris; details: 2-oxo-4-methylpentanoate, pH 7.0
Method: (§1) In the presence of increasing concentrations of MV^++ and 0.15 mM MV^+, the initial rates show the following behavior:
(§2) (0.3 ml of 0.1M trisacetate buffer of pH 7.0, 2 μmole of 2-oxo-4-methylpentanoate, the same amount of enzyme in each case, 0.2 mM of reduced methylviologen and the concentrations of oxidized methylviologen stated in the table were incubated in a 2 mm cell.)

[5] = system: 2-oxocarboxylic acid reductase; test: Initial rates with increasing concentrations of oxidized methylviologen, P. mirabilis enzyme; assay type: biochemical, Proteus mirabilis; details: for Initial rate: P. mirabilis, 2-oxo-4-methylpentanoate, pH 7.0
Method: as §1, §2

CC(C)(CO)C(=O)C(=O)O [2-Oxopantoate]
Relative rates (of reduction) [1]: 0.04 | Relative rates (of reduction) [2]: 0.07

O=C(O)CN(CCN(CC(=O)O)CC(=O)O)CC(=O)O [EDTA]
effect on the activity of the enzyme [3]: not affected

CC(=O)CO [Hydroxyacetone]
Reduction by the enzyme (in words) [2]: not reduced | Relative rates (of reduction) [2]: 0

C[n+]1ccc(-c2cc[n+](C)cc2)cc1 [MV^++, methylviologen]
Initial rate ([4]; MV++ 0.01 mM): 13.3 U/ml | Initial rate ([4]; MV++ 0.08 mM): 24.4 U/ml | Initial rate ([4]; MV++ 0.16 mM): 31.3 U/ml | Initial rate ([4]; MV++ 0.75 mM): 41.5 U/ml | effect on the activity of the enzyme (in words) [5]: can be increased | Initial rate ([5]; MV++ 0.01 mM): 18.1 U/ml | Initial rate ([5]; MV++ 0.08 mM): 41.9 U/ml | Initial rate ([5]; MV++ 0.16 mM): 46.0 U/ml | Initial rate ([5]; MV++ 0.75 mM): 62.0 U/ml

From patent US4622301A, “2-Oxocarboxylic acid reductase and its preparation” (BASF Aktiengesellschaft, priority 1983, dated 1986)
